Measurements taken from US20060111363A1, “Treatment of uveal melanoma” (priority 2002, published 2006).
Where “and” joins values, the source holds several entries; their conditions need not be identical. Equal entries are not always repeated. Where two headings read alike, the source gives them in different places.

What was measured:
c-kit = c-kit (Homo sapiens, UniProt P10721); conditions: treatment of uveal melanoma cell lines
[1] = test system: uveal melanoma cell lines (OCM-1, OCM-3, 92-1 and mel 202); assay: Survival / cell death of the four uveal melanoma cell lines; type: cell-based, human
Source text: Cell culture: Four cell lines obtained from human primary uveal melanomas (OCM-1, OCM-3, 92-1 and mel 202) are used.

OCM-1 cells = assay: XTT cell viability, uveal melanoma cell line OCM-1; conditions: for percentages of living cells as compared to 100% survival of untreated cells: runs 1 and 2
Source text: (§1) The test is based on a colorimetric change of the yellow tetrazolium slat XTT into orange formazan dye by the respiratory chain of viable cells (Roehm et al., 1991, J. Immunol. Assay, 142:257-265).

UM 92-1 cells = conditions: runs 1 and 2
Source text: as §1

mel 202 cells = assay: XTT cell viability, uveal melanoma cell line mel 202; conditions: for percentages of living cells as compared to 100% survival of untreated cells: runs 1 and 2
Source text: as §1

[2] = test system: DFB skin melanoma cell line; conditions: read-out: IC50 of Salt I on survival
Source text: (§2) Cell proliferation kit II is purchased from Roche Diagnostic GmbH (Mannheim, Germany). The test is based on a colorimetric change of the yellow tetrazolium slat XTT into orange formazan dye by the respiratory chain of viable cells (Roehm et al., 1991, J. Immunol. Assay, 142:257-265).

OCM-3 cells = assay: XTT cell viability, uveal melanoma cell line OCM-3; conditions: for percentages of living cells as compared to 100% survival of untreated cells: runs 1 and 2
Source text: as §1

[3] = test system: BE skin melanoma cell line; conditions: read-out: IC50 of Salt I on survival
Source text: as §2

c-kit, sequence (P10721 26-976): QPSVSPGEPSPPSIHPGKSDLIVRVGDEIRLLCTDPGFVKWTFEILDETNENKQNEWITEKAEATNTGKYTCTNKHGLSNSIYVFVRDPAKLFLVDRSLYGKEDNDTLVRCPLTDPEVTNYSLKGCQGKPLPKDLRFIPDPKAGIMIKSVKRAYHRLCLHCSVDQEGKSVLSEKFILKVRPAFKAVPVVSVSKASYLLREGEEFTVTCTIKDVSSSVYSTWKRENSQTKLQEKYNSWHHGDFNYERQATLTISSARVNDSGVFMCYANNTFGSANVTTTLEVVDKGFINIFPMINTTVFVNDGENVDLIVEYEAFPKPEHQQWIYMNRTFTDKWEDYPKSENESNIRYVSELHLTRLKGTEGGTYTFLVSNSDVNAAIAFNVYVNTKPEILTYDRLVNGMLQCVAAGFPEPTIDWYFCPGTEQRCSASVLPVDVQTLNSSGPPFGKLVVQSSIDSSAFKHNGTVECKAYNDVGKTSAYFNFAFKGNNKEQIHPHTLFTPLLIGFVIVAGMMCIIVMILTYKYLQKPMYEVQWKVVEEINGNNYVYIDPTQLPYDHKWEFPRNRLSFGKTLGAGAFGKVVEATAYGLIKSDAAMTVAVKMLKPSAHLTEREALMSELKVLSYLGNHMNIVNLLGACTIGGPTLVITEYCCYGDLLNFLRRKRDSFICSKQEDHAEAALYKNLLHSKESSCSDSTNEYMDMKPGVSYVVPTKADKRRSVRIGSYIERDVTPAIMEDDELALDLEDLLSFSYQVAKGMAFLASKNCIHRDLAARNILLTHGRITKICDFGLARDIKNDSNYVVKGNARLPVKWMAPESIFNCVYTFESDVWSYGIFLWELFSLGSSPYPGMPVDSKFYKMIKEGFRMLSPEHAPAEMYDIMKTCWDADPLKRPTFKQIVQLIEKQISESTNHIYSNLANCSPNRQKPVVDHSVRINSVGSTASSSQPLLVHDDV

Cc1ccc(NC(=O)c2ccc(CN3CCN(C)CC3)cc2)cc1Nc1nccc(-c2cccnc2)n1 [Compound I]
effect on c-kit auto-phosphorylation (c-kit): blocks c-kit auto-phosphorylation
cell death in vitro ([1]; four uveal melanoma cell lines): promotes in vitro cell death

CS(=O)(=O)O.Cc1ccc(NC(=O)c2ccc(CN3CCN(C)CC3)cc2)cc1Nc1nccc(-c2cccnc2)n1 [Salt I]
percentages of living cells as compared to 100% survival of untreated cells (OCM-1 cells; OCM-1, 24 h, 0.3 μM Salt I): 95% and 97%
percentages of living cells as compared to 100% survival of untreated cells (OCM-1 cells; OCM-1, 24 h, 0.6 μM Salt I): 87% and 82%
percentages of living cells as compared to 100% survival of untreated cells (OCM-1 cells; OCM-1, 24 h, 5 μM Salt I): 63%
percentages of living cells as compared to 100% survival of untreated cells (OCM-1 cells; OCM-1, 24 h, 10 μM Salt I): 50% and 52%
percentages of living cells as compared to 100% survival of untreated cells (OCM-1 cells; OCM-1, 48 h, 0.3 μM Salt I): 62% and 59%
percentages of living cells as compared to 100% survival of untreated cells (OCM-1 cells; OCM-1, 48 h, 0.6 μM Salt I): 40% and 37%
percentages of living cells as compared to 100% survival of untreated cells (OCM-1 cells; OCM-1, 48 h, 5 μM Salt I): 27% and 23%
percentages of living cells as compared to 100% survival of untreated cells (OCM-1 cells; OCM-1, 48 h, 10 μM Salt I): 23% and 29%
IC50 (OCM-1 cells; read-out: IC50 of Salt I on survival, uveal melanoma cell line OCM-1, Example 1: 48 hours exposure): 0.4 µM
percentages of living cells as compared to 100% survival of untreated cells (UM 92-1 cells; UM 92-1, 24 h, 0.3 μM Salt I): 98% and 91%
percentages of living cells as compared to 100% survival of untreated cells (UM 92-1 cells; UM 92-1, 24 h, 0.6 μM Salt I): 95%
percentages of living cells as compared to 100% survival of untreated cells (UM 92-1 cells; UM 92-1, 24 h, 5 μM Salt I): 83% and 75%
percentages of living cells as compared to 100% survival of untreated cells (UM 92-1 cells; UM 92-1, 24 h, 10 μM Salt I): 70% and 83%
percentages of living cells as compared to 100% survival of untreated cells (UM 92-1 cells; UM 92-1, 48 h, 0.3 μM Salt I): 85% and 90%
percentages of living cells as compared to 100% survival of untreated cells (UM 92-1 cells; UM 92-1, 48 h, 0.6 μM Salt I): 79% and 71%
percentages of living cells as compared to 100% survival of untreated cells (UM 92-1 cells; UM 92-1, 48 h, 5 μM Salt I): 15% and 22%
percentages of living cells as compared to 100% survival of untreated cells (UM 92-1 cells; UM 92-1, 48 h, 10 μM Salt I): 0% and 5%
percentages of living cells as compared to 100% survival of untreated cells (mel 202 cells; mel 202, 24 h, 0.3 μM Salt I): 98% and 105%
percentages of living cells as compared to 100% survival of untreated cells (mel 202 cells; mel 202, 24 h, 0.6 μM Salt I): 92% and 104%
percentages of living cells as compared to 100% survival of untreated cells (mel 202 cells; mel 202, 24 h, 5 μM Salt I): 97% and 101%
percentages of living cells as compared to 100% survival of untreated cells (mel 202 cells; mel 202, 24 h, 10 μM Salt I): 78% and 87%
percentages of living cells as compared to 100% survival of untreated cells (mel 202 cells; mel 202, 48 h, 0.3 μM Salt I): 23% and 14%
percentages of living cells as compared to 100% survival of untreated cells (mel 202 cells; mel 202, 48 h, 0.6 μM Salt I): 19% and 17%
percentages of living cells as compared to 100% survival of untreated cells (mel 202 cells; mel 202, 48 h, 5 μM Salt I): 23% and 15%
IC50 (mel 202 cells; read-out: IC50 of Salt I on survival, uveal melanoma cell line mel 202, Example 1: 48 hours exposure): 0.07 µM
IC50 [2]: > 20 µM
percentages of living cells as compared to 100% survival of untreated cells (OCM-3 cells; OCM-3, 24 h, 0.3 μM Salt I): 100% and 97%
percentages of living cells as compared to 100% survival of untreated cells (OCM-3 cells; OCM-3, 24 h, 0.6 μM Salt I): 100% and 105%
percentages of living cells as compared to 100% survival of untreated cells (OCM-3 cells; OCM-3, 24 h, 5 μM Salt I): 85% and 83%
percentages of living cells as compared to 100% survival of untreated cells (OCM-3 cells; OCM-3, 24 h, 10 μM Salt I): 87% and 98%
percentages of living cells as compared to 100% survival of untreated cells (OCM-3 cells; OCM-3, 48 h, 0.3 μM Salt I): 43% and 39%
percentages of living cells as compared to 100% survival of untreated cells (OCM-3 cells; OCM-3, 48 h, 0.6 μM Salt I): 34% and 27%
IC50 (OCM-3 cells; read-out: IC50 of Salt I on survival, uveal melanoma cell line OCM-3, Example 1: 48 hours exposure): 0.15 µM
cell loss ([1]; uveal melanoma cell lines, even at low concentrations of Salt I): drastic cell loss
IC50 [3]: > 20 µM
Salt I responsiveness (skin melanoma cell lines): no respondent
